The subject of one experiment is female Aedes aegypti. Description: Flight tunnel mosquito bioassay. The format is in vivo. As to conditions: for mean fed / mean probed: paired with CO2 (dry ice) + air; for fed (mean of triplicates) / probed (mean of triplicates): paired with control. The protocol: Mosquitoes: Aedes aegypti (Liverpool) were reared in an insectary using standard rearing procedures. Approximately 50 larvae were reared in plastic cups (13×7×7.5 cm) at 27±1° C., and were fed ground up fish pellets. Adults were contained in plastic cartons covered by nylon screening and were fed using cotton pads soaked in a 10% glucose solution. Prior to blood feeding, 20 adult females, approximately 6 to 8 days old, were aspirated out of the rearing cartons and placed in to a stock cage (20×20×20 cm). Flight Tunnel Mosquito Bioassay: The assay system consists of a six well reservoir placed at the upwind end of a flight tunnel ([…]). Temperature and humidity of the flight tunnel were maintained at rearing conditions as described above. Air was constantly pushed through the flight tunnel at a wind speed of 35 ft/min. The four center wells of the six well reservoir were utilized in these bioassays. One of the 3 cm×4 cm wells contained 6 ml of citrate-phosphate-dextrose-adenine (CPDA) solution and three wells contained 6 ml of CPDA solution supplemented with adenosine triphosphate (ATP) (Sigma Chemical Co., St. Louis, Mo.). A constant-temperature water circulator warmed the reservoir to 38° C. A collagen membrane (Devro, Sandy Run, S.C.) was placed over the wells and secured to the reservoir with a light coat of high-vacuum grease (Dow Corning Corp., Midland, Mich.). The membranes were replaced after each replicate observation and additional substrate was added as needed. The reservoir and CPDA solution was used for one replicate. Twenty mosquitoes were aspirated into a cylindrical release canister (20.5 mm×7 mm) containing a mesh screen on one end and a damper on the opposite end (Precision Plastics, Inc., Beltsville, Md.). Mosquitoes were allowed to acclimate in the canister for ten minutes and then were utilized in bioassays. The canister was placed downwind of the reservoir in the flight tunnel. Human breath was introduced in a plume into the tunnel for one minute prior to opening of the release canister. Mosquitoes were then released into the flight tunnel where the number of mosquitoes biting (proboscis inserted through the membrane) within each cell during the 10-min exposure was recorded. The solution in each well consisted of either CPDA in deionized water or one of the three experimental solutions, 10^−2M, 10^−3 M, or 10^−4 M ATP with CPDA, each marked with a randomly assigned food dye color (Betty Crocker). The position of each colored solution in the reservoir was also randomized. Mosquitoes were used once in a test and then aspirated for determination of engorgement. Several attractant candidates were compared one on one with each other, and with CO2 in the flight tunnel to evaluate efficacy.

For experiment [1], the system named is host seeking Aedes albopictus females. Kind of experiment: Field study with BG Sentinel traps in yards. As to conditions: BG Sentinel trap with attractant lure, 24 hr periods, 10 yards; control 3-4. It is filed as in vivo. The protocol: In field studies, Okoumal (1) was evaluated as an attractant for host seeking Aedes albopictus females in the BG Sentinel traps placed in different areas (yards). In the before and after control intervention evaluation, one standard BG Sentinel mosquito trap was placed in each of the 10 yards and mosquitoes were trapped for 24 hr periods in ten replicates. The first five replicates were before adding Okoumal attractant as intervention. The second set of five replicates included additional lure to the BG Sentinel trap. The traps with attractant lures collected more mean mosquitoes per trap per day (6-7 vs 3-4 mosquitoes), compared to control.

Regarding `CC1COC(C)(c2ccc3c(c2)C(C)(C)CCC3(C)C)O1` (stereo not shown) [Okoumal], the mean fed in the experiment on female Aedes aegypti (0.1% concentration) is 3.9; in the experiment with female Aedes aegypti (1% concentration), 3.8. In addition, the mean probed in the experiment on female Aedes aegypti (0.1% concentration) worked out at 3.6; in the experiment with female Aedes aegypti (1% concentration), 4.1. The “fed (mean of triplicates)” value in the experiment with female Aedes aegypti (0.10% concentration) was found to be 3.3; with female Aedes aegypti (1.00% concentration), 2.8; in the experiment with female Aedes aegypti (5% concentration), 2.3. Also, the entries for the “probed (mean of triplicates)” value in the experiment with female Aedes aegypti (0.10% concentration), in the experiment on female Aedes aegypti (1.00% concentration) and in the experiment with female Aedes aegypti (5% concentration) were 18.3, 9.7 and 13.3, respectively. Also, in the experiment on female Aedes aegypti (compared with CO2 and cyclopentanone, host seeking female mosquitoes), the “feeding (host seeking) preference, in words” value is given as “consistent feeding (host seeking) preference”. Further, in the experiment with female Aedes aegypti (three different concentrations), the “feeding attraction, in words” value is “consistent feeding attraction”. Besides, the “mean mosquitoes per trap per day” value in experiment [1] is recorded as 6-7 mosquitoes.

(Values after US10952434B2, “Compositions and methods for attracting insects” (The United States of America, as Represented by the …, priority 2016, dated 2021).)
